Laboratory results as given in ChEMBL document CHEMBL5113402, “Inhibition of cytochrome P450 monooxygenase-catalyzed oxylipin formation by flavonoids: Evaluation of structure-activity relationship towards CYP4F2-selective inhibitors” (Eur J Med Chem, 2022).

Assays:
[1] = species on record: Homo sapiens; experiment: Selectivity index, log ratio of Inhibition of CYP450 in human liver microsomes assessed as inhibition of EpETrE formation in presence of arachidonic acid to Inhibition of CYP450 in human liver microsomes assessed as inhibition of 20-HETE formation in presence of arachidonic acid
[2] = target: T1, CYP450 (20-HETE formation) (Homo sapiens, UniProt P04798+P05177+P05181+P08684+P10632+P10635+P11509+P11712+P13584+P20813+P20815+P20853+P24462+P24903+P33260+P33261+P51589+P78329+P98187+Q02928+Q08477+Q16678+Q16696+Q5TCH4+Q6VVX0+Q7Z449+Q8TAV3+Q96SQ9+Q9HB55); experiment: Inhibition of CYP450 in human liver microsomes assessed as inhibition of 20-HETE formation in presence of arachidonic acid and NADPH by multi-enzyme assay based LC-MS/MS analysis; assay type: ADME, Microsome; settings: probe arachidonic acid
[3] = target: T1, CYP450 (20-HETE formation); experiment: Inhibition of CYP450 in human liver microsomes assessed as inhibition of 20-HETE formation in presence of arachidonic acid and NADPH by multi-enzyme assay based LC-MS/MS analysis relative to control; assay type: ADME, Microsome; settings: probe arachidonic acid
[4] = Inhibition of CYP450 in Sprague-Dawley rat liver microsomes assessed as inhibition of 20-HETE formation in presence of arachidonic acid and NADPH by multi-enzyme assay based LC-MS/MS analysis relative to control; assay type: ADME, Microsome
[5] = Inhibition of CYP450 in Sprague-Dawley rat liver microsomes assessed as inhibition of 20-HETE formation in presence of arachidonic acid and NADPH by multi-enzyme assay based LC-MS/MS analysis; assay type: ADME, Microsome
[6] = Inhibition of CYP450 in B6C3F1 mouse liver microsomes assessed as inhibition of 20-HETE formation in presence of arachidonic acid and NADPH by multi-enzyme assay based LC-MS/MS analysis relative to control; assay type: ADME, Microsome
[7] = Inhibition of CYP450 in B6C3F1 mouse liver microsomes assessed as inhibition of 20-HETE formation in presence of arachidonic acid and NADPH by multi-enzyme assay based LC-MS/MS analysis; assay type: ADME, Microsome
[8] = target: T2, Cytochrome P450 4F2 (Homo sapiens, UniProt P78329); experiment: Inhibition of recombinant human CYP4F2 expressed in baculovirus-infected insect cells in presence of arachidonic acid and NADPH incubated for 15 mins by jump-dilution assay relative to control; assay type: ADME
T2 sequence (P78329 whole entry): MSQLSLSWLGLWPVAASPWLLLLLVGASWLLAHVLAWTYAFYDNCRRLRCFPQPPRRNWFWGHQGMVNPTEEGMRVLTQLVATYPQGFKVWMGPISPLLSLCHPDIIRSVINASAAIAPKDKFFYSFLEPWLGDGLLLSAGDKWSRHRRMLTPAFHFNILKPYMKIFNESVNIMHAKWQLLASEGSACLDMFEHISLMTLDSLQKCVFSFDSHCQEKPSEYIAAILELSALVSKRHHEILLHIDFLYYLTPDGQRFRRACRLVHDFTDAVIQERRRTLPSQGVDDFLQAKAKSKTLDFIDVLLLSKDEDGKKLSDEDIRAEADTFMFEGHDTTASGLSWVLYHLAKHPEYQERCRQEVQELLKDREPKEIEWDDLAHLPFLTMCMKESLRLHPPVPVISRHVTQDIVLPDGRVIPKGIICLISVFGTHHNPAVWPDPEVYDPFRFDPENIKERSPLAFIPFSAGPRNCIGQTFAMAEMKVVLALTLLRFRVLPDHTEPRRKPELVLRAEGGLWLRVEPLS

[9] = target: T2, Cytochrome P450 4F2; experiment: Inhibition of recombinant human CYP4F2 expressed in baculovirus-infected insect cells in presence of arachidonic acid and NADPH incubated for 15 mins by jump-dilution assay; assay type: ADME
[10] = target: T3, CYP4A11 (Homo sapiens, UniProt Q02928); experiment: Inhibition of recombinant human CYP4A11 expressed in baculovirus-infected insect cells at 50 uM incubated for 15 mins in presence of arachidonic acid and NADPH by jump-dilution assay relative to control; assay type: ADME; settings: probe arachidonic acid
T3 sequence (Q02928 whole entry): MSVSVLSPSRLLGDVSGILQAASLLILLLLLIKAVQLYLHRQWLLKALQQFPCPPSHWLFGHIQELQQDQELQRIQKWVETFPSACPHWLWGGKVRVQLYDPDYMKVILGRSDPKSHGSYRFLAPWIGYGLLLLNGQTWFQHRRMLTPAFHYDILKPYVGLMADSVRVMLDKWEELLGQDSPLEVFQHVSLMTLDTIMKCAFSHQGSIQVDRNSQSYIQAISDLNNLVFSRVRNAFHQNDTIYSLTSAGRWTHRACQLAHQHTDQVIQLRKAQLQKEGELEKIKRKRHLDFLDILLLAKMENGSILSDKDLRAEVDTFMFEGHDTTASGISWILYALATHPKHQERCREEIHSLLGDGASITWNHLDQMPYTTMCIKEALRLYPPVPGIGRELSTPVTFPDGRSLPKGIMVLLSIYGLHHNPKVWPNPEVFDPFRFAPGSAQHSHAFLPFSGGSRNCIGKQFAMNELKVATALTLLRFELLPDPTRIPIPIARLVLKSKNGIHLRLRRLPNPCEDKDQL

[11] = target: T4, Cytochrome P450 2J2 (Homo sapiens, UniProt P51589); experiment: Inhibition of recombinant human CYP2J2 expressed in baculovirus-infected insect cells in presence of arachidonic acid and NADPH incubated for 15 mins by jump-dilution assay relative to control; assay type: ADME
T4 sequence (P51589 whole entry): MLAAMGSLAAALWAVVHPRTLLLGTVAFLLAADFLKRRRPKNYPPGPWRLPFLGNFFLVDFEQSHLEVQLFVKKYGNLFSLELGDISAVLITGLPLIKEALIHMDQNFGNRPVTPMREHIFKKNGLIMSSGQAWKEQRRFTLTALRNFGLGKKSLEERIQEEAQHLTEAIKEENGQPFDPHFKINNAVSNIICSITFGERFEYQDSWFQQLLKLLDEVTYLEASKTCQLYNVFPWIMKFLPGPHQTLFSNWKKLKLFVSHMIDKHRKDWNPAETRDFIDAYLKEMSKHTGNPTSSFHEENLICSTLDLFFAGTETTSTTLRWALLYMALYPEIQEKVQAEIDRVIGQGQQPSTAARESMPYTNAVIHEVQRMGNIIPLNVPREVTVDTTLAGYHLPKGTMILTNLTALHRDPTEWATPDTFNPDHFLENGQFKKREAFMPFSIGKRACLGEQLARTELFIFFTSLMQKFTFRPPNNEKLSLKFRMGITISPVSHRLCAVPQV

[12] = target: T1, CYP450 (20-HETE formation); experiment: Inhibition of CYP450 in human HCT-116 cells assessed as 20-HETE formation in presence of arachidonic acid incubated for 15 mins by multi-enzyme assay based LC-MS/MS analysis relative to control; assay type: ADME, cell-based; settings: probe arachidonic acid
[13] = Apparent permeability of the compound in human Caco-2 cells; assay type: ADME, cell-based
[14] = Drug recovery in human HCT-116 cells incubated for 24 hrs; assay type: ADME, cell-based; settings: read-out: Drug recovery
[15] = Drug recovery in human liver microsomes assessed as NADPH-fortified oxidative metabolism recovery in presence of arachidonic acid incubated for 30 mins; assay type: ADME, Microsome; settings: read-out: Drug recovery

## O=c1cc(-c2ccc(C(F)(F)F)cc2)oc2ccccc12
[1]
  log(ratio): 0.58
[2]
  IC50: 4.9 µM
[3]
  IC50: 2.8 µM
[4]
  IC50: 1.4 µM
[5]
  IC50: 4.3 µM
[6]
  IC50: 0.71 µM
[7]
  IC50: 7.6 µM
[8]
  IC50: 0.76 µM
[9]
  IC50: 0.87 µM
[10]
  inhibition at 0.25 h, 50 µM: < 25%
[11]
  IC50: 50 µM
[12]
  IC50 at 15 min: 1.9 µM
[13]
  Papp: 41 nm/s
[14]
  remaining at 24 h: 89%
[15]
  remaining at 0.5 h: 87%
